Test results as given in US12410164B2, “Heterocyclic compounds and medical use thereof” (FONDAZIONE TELETHON, priority 2018, dated 2025).

These compounds were tested against F508del-CFTR (Homo sapiens, UniProt P13569, DEL508-508) (assay: HS-YFP kinetic fluorescence (iodide quenching rate) assay in CFBE41o− cells). Conditions: Table 1; compound at 10 μM plus VX-809; (QRTOT − QRVX)/QRVX, HS-YFP assay.
Type: cell-based
Design: expressed in transfected cells; host or cells: CFBE41o- cells with expression of F508del-CFTR and HS-YFP (generated as in Sondo et al. 2011)
Protocol: CFBE41o- cells, with expression of F508del-CFTR and halogen-sensitive fluorescent protein, were generated as previously described (Sondo E, et al. Am J Physiol. 2011, 301, […]-[…]). For the test, the cells were seeded in 96-well microplates using a culture medium consisting of DMEM and Ham's F12 (1:1) supplemented with 10% foetal bovine serum. After 24 hours from seeding, the cells were treated for another 24 hours with the test compounds dissolved in the culture medium at the desired concentrations. As a negative control, the solvent of the compounds (dimethyl sulfoxide, DMSO) dissolved in the medium with the same dilution ratio (final percentage of DMSO:0.1-0.2%) was used. As a positive control, the corrector VX-809 (Selleck Chemicals, […]) was used at a concentration of 1 μM. After treatment, the medium with the compounds was removed and the cells were stimulated with forskolin (Sigma-Aldrich, F6886) 20 μM plus genistein (Sigma-Aldrich, G6649) 50 μM (in 60 μl of PBS saline) to maximally activate the CFTR channels present in the membrane. In a microplate reader (FLUOstar-Omega, BMG) the fluorescence of the cells in each well was read for 14 seconds, with an injection of 165 μl of a iodide-enriched saline (modified PBS where NaCl, 137 mM, has been replaced with the same concentration of NaI). The iodide transport activity in each well was evaluated by subtraction of the background fluorescence (measured in a well without cells), subsequent normalization with respect to the initial fluorescence and finally by interpolation of the fluorescence quenching phase with an exponential function that allows the derivation of the maximum slope (quenching rate, QR). The activity of the synthesized compounds was initially evaluated on the CFBE41o- cell line with expression of the mutated F508del-CFTR protein described above (Sondo E, et al. Am J Physiol. 2011, 301, […]-[…]). For this purpose, a functional assay based on the fluorescent YFP protein sensitive to halides, HS-YFP, was used (Galietta L J, et al. J Biol Chem. 2001, 276, 19723-19728). The fluorescence of the HS-YFP protein is turned off by iodide. Therefore, if exposed to a solution containing iodide, cells with HS-YFP expression show a quenching speed of the fluorescence which depends on the presence and activity of anionic channels. Under control conditions, the mutated CFTR protein presents a serious defect of stability and maturation, so it remains trapped in the endoplasmic reticulum not reaching the cell surface in enough quantity. In the HS-YFP-based assay, this defect results in a low anion transport capacity and therefore in a low quenching rate (QR). Treatment for a prolonged time (e.g. 24 hours) with a corrector determines an improvement in protein maturation with an increase in the number of CFTR channels present in the membrane and therefore an increase in the flux of iodide and QR. In a first phase, the authors screened about 200 heterocyclic molecules with various nitrogenated tricyclic scaffolds. Conditions previously described have been used for screening (Sondo E, et al. Am J Physiol. 2011, 301, […]-[…]) and reported herein in the Materials and Methods section. A threshold equal to the average value plus three times the standard deviation of the QR of wells without compounds (only DMSO in the culture medium) was used as a criterion for the selection of active compounds.

F508del-CFTR, sequence (P13569 with tags, fused parts or gaps DEL508-508): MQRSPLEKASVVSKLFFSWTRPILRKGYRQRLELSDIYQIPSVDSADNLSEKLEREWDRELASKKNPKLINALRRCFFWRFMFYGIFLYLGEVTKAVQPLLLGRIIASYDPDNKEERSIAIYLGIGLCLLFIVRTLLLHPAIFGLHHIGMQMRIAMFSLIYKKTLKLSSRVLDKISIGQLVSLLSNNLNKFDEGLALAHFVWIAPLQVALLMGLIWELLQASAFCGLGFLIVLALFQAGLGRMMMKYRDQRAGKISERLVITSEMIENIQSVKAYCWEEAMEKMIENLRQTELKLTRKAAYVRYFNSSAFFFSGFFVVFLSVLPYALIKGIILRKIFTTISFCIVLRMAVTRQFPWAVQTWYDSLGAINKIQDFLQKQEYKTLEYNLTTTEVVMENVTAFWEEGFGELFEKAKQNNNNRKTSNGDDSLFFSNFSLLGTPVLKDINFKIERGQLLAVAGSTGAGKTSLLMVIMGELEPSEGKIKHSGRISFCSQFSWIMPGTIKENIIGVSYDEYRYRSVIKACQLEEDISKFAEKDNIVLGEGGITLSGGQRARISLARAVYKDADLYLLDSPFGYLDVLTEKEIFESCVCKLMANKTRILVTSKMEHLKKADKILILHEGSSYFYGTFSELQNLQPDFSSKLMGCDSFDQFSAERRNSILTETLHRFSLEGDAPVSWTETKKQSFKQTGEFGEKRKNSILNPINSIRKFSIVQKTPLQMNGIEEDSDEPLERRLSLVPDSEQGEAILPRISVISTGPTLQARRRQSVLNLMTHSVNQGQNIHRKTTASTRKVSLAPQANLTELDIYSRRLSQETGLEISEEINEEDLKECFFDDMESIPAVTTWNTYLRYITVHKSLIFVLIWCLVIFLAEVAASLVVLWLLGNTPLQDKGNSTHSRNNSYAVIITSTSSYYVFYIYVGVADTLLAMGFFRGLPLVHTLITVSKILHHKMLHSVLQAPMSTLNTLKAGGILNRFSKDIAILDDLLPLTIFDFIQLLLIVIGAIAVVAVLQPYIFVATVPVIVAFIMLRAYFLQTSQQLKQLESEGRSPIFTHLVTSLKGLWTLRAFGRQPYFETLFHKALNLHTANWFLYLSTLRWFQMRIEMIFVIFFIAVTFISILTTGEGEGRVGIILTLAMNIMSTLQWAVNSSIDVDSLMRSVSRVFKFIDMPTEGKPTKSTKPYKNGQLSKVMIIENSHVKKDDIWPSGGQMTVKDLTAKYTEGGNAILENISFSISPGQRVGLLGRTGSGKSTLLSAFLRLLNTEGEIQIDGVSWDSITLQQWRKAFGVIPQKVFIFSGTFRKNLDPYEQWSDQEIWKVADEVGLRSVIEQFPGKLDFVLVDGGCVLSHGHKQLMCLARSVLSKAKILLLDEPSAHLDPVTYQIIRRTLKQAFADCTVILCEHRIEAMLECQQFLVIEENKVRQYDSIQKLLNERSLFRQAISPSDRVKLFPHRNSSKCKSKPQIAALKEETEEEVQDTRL

| AI (%) additivity index | Compound |
| --- | --- |
| 174% | CC(C)OC(=O)c1cc2c(n1CC1CC1)-c1[nH]c(=O)c(S(=O)(=O)c3ccccc3)cc1CC2 [PP105, Propan-2-yl 7-(benzenesulfonyl)-1-(cyclopropylmethyl)-8-oxo-4,5,8,9-tetrahydro-1H-pyrrolo[3,2-h]quinoline-2-carboxylate] |
| 208% | Cc1cccc(Cn2c(C(=O)NC(C)C)c(Br)c3c2-c2[nH]c(=O)c(S(=O)(=O)c4ccccc4)cc2CC3)c1 [PP091, 7-(Benzenesulfonyl)-3-bromo-1-[(3-methylphenyl)methyl]-8-oxo-N-(propan-2-yl)-4,5,8,9-tetrahydro-1H-pyrrolo[3,2-h]quinoline-2-carboxamide] |
| 284% | CCOC(=O)c1c(Br)c2c(n1CC1CC1)-c1[nH]c(=O)c(S(=O)(=O)c3ccccc3)cc1CC2 [PP065, Ethyl 7-(benzenesulfonyl)-3-bromo-1-(cyclopropylmethyl)-8-oxo-4,5,8,9-tetrahydro-1H-pyrrolo[3,2-h]quinoline-2-carboxylate] |
| 11% | Cc1ccc(Cn2c(C(=O)O)c(Br)c3c2-c2[nH]c(=O)c(S(=O)(=O)c4ccccc4)cc2CC3)cc1C [PP095, 7-(Benzenesulfonyl)-3-bromo-1-[(3,4-dimethylphenyl)methyl]-8-oxo-4,5,8,9-tetrahydro-1H-pyrrolo[3,2-h]quinoline-2-carboxylic acid] |

The remaining lines, values behind:

| Compound | AI (%) additivity index |
| --- | --- |
| COC(=O)c1cc2c(n1Cc1ccc(C)cc1)-c1[nH]c(=O)c(S(=O)(=O)c3ccccc3)cc1CC2 [PP019, Methyl 1-(4-methylbenzyl)-8-oxo-7-(phenylsulfonyl)-4,5,8,9-tetrahydro-1H-pyrrolo[3,2-h]quinoline-2-carboxylate] | 29% |
| CCOC(=O)c1c(Br)c2c(n1Cc1ccc(C)nc1)-c1[nH]c(=O)c(S(=O)(=O)c3ccccc3)cc1CC2 [PP067, Ethyl 7-(benzenesulfonyl)-3-bromo-1-[(6-methylpyridin-3-yl)methyl]-8-oxo-4,5,8,9-tetrahydro-1H-pyrrolo[3,2-h]quinoline-2-carboxylate] | 81% |
| CCOC(=O)c1c(Br)c2c(n1Cc1ccc(C)cc1)-c1[nH]c(=O)c(S(C)(=O)=O)cc1CC2 [PP036, Ethyl 3-bromo-7-(metansulfonyl)-1-[(4-methylphenyl)methyl]-8-oxo-4,5,8,9-tetrahydro-1H-pyrrolo[3,2-h]quinoline-2-carboxylate] | 23% |
| CCOC(=O)c1cc2c(n1Cc1ccc(Cl)cc1)-c1[nH]c(=O)c(S(=O)(=O)c3ccccc3)cc1CC2 [PP017, Ethyl 1-(4-chlorobenzyl)-8-oxo-7-(phenylsulfonyl)-4,5,8,9-tetrahydro-1H-pyrrolo[3,2-h]quinoline-2-carboxylate] | 203% |
| CCOC(=O)c1c(Cl)c2c(n1Cc1ccc(C)cc1)-c1[nH]c(=O)c(S(=O)(=O)c3ccccc3)cc1CC2 [PP076, Ethyl 7-(benzenesulfonyl)-3-chloro-1-[(4-methylphenyl)methyl]-8-oxo-4,5,8,9-tetrahydro-1H-pyrrolo[3,2-h]quinoline-2-carboxylate] | 244% |
| Cc1cccc(Cn2c(C(=O)NC(C)C)cc3c2-c2[nH]c(=O)c(S(=O)(=O)c4ccccc4)cc2CC3)c1 [PP083, 7-(Benzenesulfonyl)-1-[(3-methylphenyl)methyl]-8-oxo-N-(propan-2-yl)-4,5,8,9-tetrahydro-1H-pyrrolo[3,2-h]quinoline-2-carboxamide] | 53% |
| Cc1cccc(Cn2c(C(=O)O)cc3c2-c2[nH]c(=O)c(S(=O)(=O)c4ccccc4)cc2CC3)c1 [PP090, 7-(Benzenesulfonyl)-1-[(3-methylphenyl)methyl]-8-oxo-4,5,8,9-tetrahydro-1H-pyrrolo[3,2-h]quinoline-2-carboxylic acid] | 36% |
| CCOC(=O)c1cc2c(n1Cc1ccc(C)cc1C)-c1[nH]c(=O)c(S(=O)(=O)c3ccccc3)cc1CC2 [PP021, Ethyl 7-(benzenesulfonyl)-1-[(2,4-dimethylphenyl)methyl]-8-oxo-4,5,8,9-tetrahydro-1H-pyrrolo[3,2-h]quinoline-2-carboxylate] | 40% |
| CCOC(=O)c1c(Br)c2c(n1Cc1ccc(F)cc1)-c1[nH]c(=O)c(S(=O)(=O)c3ccccc3)cc1CC2 [PP073, Ethyl 7-(benzenesulfonyl)-3-bromo-1-[(4-fluorophenyl)methyl]-8-oxo-4,5,8,9-tetrahydro-1H-pyrrolo[3,2-h]quinoline-2-carboxylate] | 442% |
| CCOC(=O)c1c(Br)c2c(n1Cc1ccc(Cl)cc1)-c1[nH]c(=O)c(S(=O)(=O)c3ccccc3)cc1CC2 [PP029, Ethyl 3-bromo 1-(4-chlorobenzyl)-8-oxo-7-(phenylsulfonyl)-4,5,8,9-tetrahydro-1H-pyrrolo[3,2-h]quinoline-2-carboxylate] | 46% |
| CCOC(=O)c1cc2c(n1Cc1ccc(Br)cc1)-c1[nH]c(=O)c(S(=O)(=O)c3ccccc3)cc1CC2 [PP060, Ethyl 7-(benzenesulfonyl)-1-[(4-bromophenyl)methyl]-8-oxo-4,5,8,9-tetrahydro-1H-pyrrolo[3,2-h]quinoline-2-carboxylate] | 148% |
| CCOC(=O)c1cc2c(n1Cc1ccc(C)cc1)-c1[nH]c(=O)c(S(=O)(=O)c3ccc(C)cc3)cc1CC2 [PP023, Ethyl 7-(4-methylbenzene-1-sulfonyl)-1-[(4-methylphenyl)methyl]-8-oxo-4,5,8,9-tetrahydro-1H-pyrrolo[3,2-h]quinoline-2-carboxylate] | 89% |
| Cc1cccc(Cn2c(C(=O)NC3CC3)cc3c2-c2[nH]c(=O)c(S(=O)(=O)c4ccccc4)cc2CC3)c1 [PP092, 7-(Benzenesulfonyl)-N-cyclopropyl-1-[(3-methylphenyl)methyl]-8-oxo-4,5,8,9-tetrahydro-1H-pyrrolo[3,2-h]quinoline-2-carboxamide] | 52% |
| CCOC(=O)c1c(I)c2c(n1Cc1ccc(C)cc1)-c1[nH]c(=O)c(S(=O)(=O)c3ccccc3)cc1CC2 [PP077, Ethyl 7-(benzenesulfonyl)-3-iodo-1-[(4-methylphenyl)methyl]-8-oxo-4,5,8,9-tetrahydro-1H-pyrrolo[3,2-h]quinoline-2-carboxylate] | 202% |

Same assay, conditions: Table 3; compound at 10 μM plus VX-809; (QRTOT-QRVX)/QRVX

| Compound | AI additivity index |
| --- | --- |
| CCOC(=O)c1cc2c(n1Cc1ccc(C)cc1)-c1nc(NS(=O)(=O)c3ccccc3)ncc1CC2 [SVQ9, Ethyl 2-[(benzenesulfonyl)amino]-9-[(4-methylphenyl)methyl]-6,9-dihydro-5H-pyrrolo[3,2-h]quinazoline-8-carboxylate] | 98% |

Same assay, conditions: Table 4; compound at 10 μM plus VX-809; (QRTOT − QRVX)/QRVX

| Compound | AI (%) additivity index |
| --- | --- |
| CC(C)OC(=O)c1c(Br)cc2n1CCCc1cc(S(=O)(=O)c3ccccc3)c(=O)[nH]c1-2 [QZN14, Propan-2-yl 3-(benzenesulfonyl)-10-bromo-2-oxo-1,5,6,7-tetrahydro-2H-pyrido[2,3-c]pyrrolo[1,2-a]azepine-9-carboxylate] | 141% |
| CCOC(=O)c1ccc2n1CCCc1cc(S(=O)(=O)c3ccccc3)c(=O)[nH]c1-2 [QZN5, Ethyl 3-(benzenesulfonyl)-2-oxo-1,5,6,7-tetrahydro-2H-pyrido[2,3-c]pyrrolo[1,2-a]azepine-9-carboxylate] | 19% |
| CC(C)OC(=O)c1c(Br)cc2n1CCc1cc(S(=O)(=O)c3ccccc3)c(=O)[nH]c1-2 [QZN10, Propan-2-yl 3-(benzenesulfonyl)-9-bromo-2-oxo-1,2,5,6-tetrahydropyrrolo[1,2-h][1,7]naphthyridine-8-carboxylate] | 101% |
| CCOC(=O)c1c(Br)cc2n1CCc1cc(S(=O)(=O)c3ccccc3)c(=O)[nH]c1-2 [QZN2, Ethyl 3-(benzenesulfonyl)-9-bromo-2-oxo-1,2,5,6-tetrahydropyrrolo[1,2-h][1,7]naphthyridine-8-carboxylate] | 19% |
